Counter-ions that a name gives are not always drawn.

Data on 23 compounds can be found in patent publication US5420289A, “Substituted indole-, indene-, pyranoindole- and tetrahydrocarbazole-alkanoic acid derivatives as inhibitors of PLA2 and lipoxygenase” (American Home Products Corporation, priority 1993, dated 1995).

Assay [1] has as its target T1, human synovial fluid PLA2 (Homo sapiens, UniProt P14555).
T1 sequence (P14555 21-144): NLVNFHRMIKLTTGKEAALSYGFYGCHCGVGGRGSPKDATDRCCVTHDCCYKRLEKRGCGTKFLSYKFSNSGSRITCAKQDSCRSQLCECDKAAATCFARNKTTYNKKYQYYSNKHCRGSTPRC
The experiment in a line: in vitro isolated phospholipase A2 assay, human synovial fluid PLA2 (Example 74). It is filed as biochemical. The arrangement: inhibition / % Inhibition, HSF (human synovial fluid): dose or concentration left out as unconfirmed. The conditions noted are these: for IC50: Table III, read-out: IC50 HSF (human synovial fluid); for inhibition: read-out: % Inhibition, HSF (human synovial fluid). How it is done:
The compounds of the invention are tested in an in vitro isolated phospholipase A2 assay to determine the ability of the test compounds to inhibit the release of arachidonic acid from an arachidonic acid-containing substrate by the action of phospholipase A2 enzyme from human and non-human sources.
(§1) This assay is carried out as follows:
Into a 15 mL polypropylene tube are added the following:
^6 Two human PLA2 enzymes are used:
b) Purified human synovial fluid.
Incubate the 100mL reaction mixture for 10 minutes at 37° C. in a shaking water bath. The reaction is terminated by the addition of 2 mL tetrahydrofuran, followed by vortexlag. NH2 columns (100 mg/mL--Analytichem International) are conditioned with 0.5 mL tetrahydrofuran followed by 0.5 mL tetrahydrofuran/water (2 mL:0.1 mL, v/v).
The sample is loaded onto the columns and slowly drawn through them. The hydrolyzed arachidonic acid retained in the columns is eluted therefrom with 1 mL tetrahydrofuran/glacial acetic acid (2%). The arachidonic acid is transferred to scintillation vials and quantitated by b-counting analysis. A "total counts" sample is prepared by pipetting […] ^3 H-arachidonate E. coli directly into a scintillation vial to which is added 1 mL tetrahydrofuran. 10 mL aquasol (scintillation cocktail) is added to all samples. [formula]

The subject of assay [2] is 5-lipoxygenase in human whole blood. Briefly: inhibition of 5-lipoxygenase in human whole blood (Example 79). It is filed as cell-based. The note with it: for IC50: human whole blood, read-out: IC50 (inhibition of LTB4). How it is done:
The assay of this Example measures the ability of the compounds tested to inhibit 5-lipoxygenase in human whole blood.
as §1
Blood is obtained in 50-100 ml quantities from male donors. White blood cell counts and differentials are made. Two ml of blood are placed in a 15 ml polypropylene test tube. Compounds are solubilized in dimethylsulfoxide and diluted 1:10 in 10% bovine serum albumin in phosphate buffered saline, pH 7.4 resulting in a final dimethylsulfoxide concentration of 0.1% in the blood. Then, compounds are added to the blood in a shaking water bath at 37° C. for 10 minutes prior to the addition of […] calcium ionophore (A23187; Sigma). After ionophore administration, whole blood samples are mixed and incubated for 20 minutes at 37° C. in a shaking water bath. Incubation is terminated by placing samples in an ice bath and immediately adding ethylene glycol-bis-(b-aminoethyl ether)-N,N,N',N'-tetraacetic acid (10 mM). Samples are mixed and centrifuged at 1200 × g for 15 minutes at 4° C. Preparation of samples for evaluation by RIA or ELISA is carried out by the following protocol. Plasma is removed from sample tubes, placed in 15 ml polypropylene test tubes containing 8 ml methanol, and then vortexed to precipitate protein. Samples are stored at -70° C. overnight. The next day, samples are centrifuged at 200 × g for 15 minutes at 4° C. to pellet the precipitate. Samples are dried in a Savant speed vac concentrator, reconstituted to original volume with ice cold RIA or ELISA buffer, and stored at -70° C. until assayed. The assay for eicosanoids (LTB4, T×B2, and PGE2) is performed as described by the manufacturer of the [^3 H]-RIA kit or ELISA kit (LTB4 -Amersham, TxB2 and PGE2 - Caymen Chemical).
The total eicosanoid level in 2 ml of blood is calculated and reported as ng/10^6 neutrophils. […] Drug effects are expressed as percent change from control values.
Compounds tested in vitro are solubilized in dimethylsulfoxide and diluted 1:10 in 10% bovine serum albumin in phosphate buffer saline resulting in a final dimethylsulfoxide concentration of 0.1% i n the blood.

As to “1-[(4-Chlorophenyl)methyl]-5-(2-quinolinylmethoxy)-1H-indole-3-acetic acid [Example 32]”, the “% Inhibition, HSF (human synovial fluid)” value in assay [1] is 36%.

As to `Cc1c(CC(=O)O)c2cc(OCc3ccc4ccccc4c3)ccc2n1Cc1ccc(Cl)cc1` [Example 34, 1-[(4-Chlorophenyl)methyl]-2-methyl-5-(2-naphthalenylmethoxy)-1H-indole-3-acetic acid], in assay [1], the IC50 (as a rule, the concentration that inhibits the measured activity by half) is 33.7 µM.

For `CC(C)c1ccc2c(c1)c(SC(C)(C)C)c(CC(C)(C)C(=O)O)n2Cc1ccc(Cl)cc1` [L-663,536, reference compound], in assay [2] (3 μM), the “% Inhibition of LTB4” value worked out at 96%.

Turning to `Cc1c(CC(=O)O)c2cc(OCc3ccc4ccccc4n3)ccc2n1Cc1ccc(C(=O)O)cc1` [Example 27, 1-[(4-Carboxyphenyl)methyl]-2-methyl-5-(2-quinolinylmethoxy)-1H-indole-3-acetic acid], in assay [1], the inhibition (in general, the percentage by which the read-out fell short of the control) is 45%.

For `Cc1c(CNC(=O)NO)c2cc(OCc3ccc4ccccc4n3)ccc2n1Cc1ccc(Cl)cc1` [Example 42, N-[[1-[(4-Chlorophenyl)methyl]-2-methyl-5-(2-quinolinylmethoxy)-1H-indol-3-yl]methyl]-N'-hydroxyurea], the “% Inhibition of LTB4” value in assay [2] (25 μM) is 89%. Also, the IC50 in assay [2] was 5.6 µM.

Take `CSc1ccc(Cn2c(C)c(CC(=O)O)c3cc(OCc4csc(-c5ccccc5)n4)ccc32)cc1` [Example 58, 5-[(2-Phenyl-4-thiazolyl)methoxy]-1-[[(4-methylthio)phenyl]methyl]-2-methyl-1H -indole-3-acetic acid]: in assay [1], the inhibition was 43%.

With `Cc1c(CC(=O)N(C)O)c2cc(OCc3ccc4ccccc4n3)ccc2n1Cc1ccc(Cl)cc1` [Example 22, 1-[(4-Chlorophenyl)methyl]-2-methyl-N-(methyl)-N-(hydroxy)-5-(2-quinolinylmethoxy)-1H,indole-3-acetamide three quarters hydrate], the “% Inhibition of LTB4” value in assay [2] (25 μM) amounted to 78%. For the same compound, the IC50 in assay [2] came to 39.8 µM.

For the compound `Cc1c(CC(=O)O)c2cc(OCc3csc(-c4ccc(C(F)(F)F)cc4)n3)ccc2n1Cc1ccc(Cl)cc1` [Example 39, 1-[(4-Chlorophenyl)methyl]-2-methyl-5-[[2-(4-trifluoromethylphenyl)-4-thiazolyl]methoxy]-1H-indole-3-acetic acid], the inhibition in assay [1] stood at 46%.

Regarding `Cc1c(CC(=O)NS(=O)(=O)c2ccccc2)c2cc(OCc3ccc4ccccc4n3)ccc2n1Cc1ccc(Cl)cc1` [Example 23], the inhibition in assay [1] amounted to 64%.

`Cc1c(CC(=O)O)c2cc(OCc3csc(-c4ccccc4)n3)ccc2n1Cc1ccc2ccccc2c1` [Example 67, 5-[(2-Phenyl-4-thiazolyl)methoxy]-1-(2-nanhthalenylmethyl)-2-methyl-1H-indole-3-acetic acid]: the inhibition in assay [1] was found to be 49%. In addition, the “% Inhibition of LTB4” value in assay [2] (25 μM) is recorded as 30%.

For the compound `Cc1c(CC(=O)O)c2cc(OCc3nc4ccccc4s3)ccc2n1Cc1ccc(Cl)cc1` [Example 37, 1-[(4-Chlorophenyl)methyl]-2-methyl-5-(2-benzothiazolylmethoxy)-1H-indole-3-acetic acid], the inhibition in assay [1] is 39%.

`CC(c1cc2ccccc2s1)N(O)C(N)=O` (stereo not drawn) [Example A-64077, reference compound]: in assay [2] (25 μM), the “% Inhibition of LTB4” value is 72%. Also, in assay [2], the IC50 was found to be 3 µM.

Take `Cc1c(CC(=O)N(C)O)c2cc(OCc3csc(-c4ccccc4)n3)ccc2n1Cc1ccccc1` [Example 57, N-hydroxy-5-[(2-phenyl-4-thiazolyl)methoxy]-1-(phenylmethyl)-N,2-dimethyl-1H-indole-3-acetamide]: the IC50 in assay [2] is 43.3 µM.

Turning to `CCOC(=O)Cc1c(C)n(Cc2cccc(OC)c2)c2ccc(OCc3csc(-c4ccccc4)n3)cc12` [Example 59, 5-[(2-Phenyl-4-thiazolyl)methoxy]-1-[[(3-methoxy)phenyl]methyl]-2-methyl-1H-indole-3-acetic acid ethyl ester], the inhibition in assay [1] worked out at 6%.

Regarding `Cc1c(CC(=O)O)c2cc(OCc3ccccn3)ccc2n1Cc1ccc(Cl)cc1` [Example 36, 1-[(4-Chlorophenyl)methyl]-2-methyl-5-(2-pyridinylmethoxy)-1H-indole-3-acetic acid], the inhibition in assay [1] was found to be 46%.

Consider `Cc1c(CC(=O)O)c2cc(OCc3ccccc3)ccc2n1Cc1ccc(Cl)cc1` [Example 35, 1-[(4-Chlorophenyl)methyl]-2-methyl-5-(phenylmethoxy)-1H-indole-3-acetic acid], for which, in assay [1], the IC50 turned out to be 52.9 µM and the inhibition was 28%.

Take `Cc1c(CC(=O)O)c2cc(OCc3csc(-c4ccccc4)n3)ccc2n1Cc1ccccc1` [Example 40, 1-[(Phenyl)methyl]-2-methyl-5-[(2-phenyl-4-thiazolyl)methoxy]-1H-indole-3-acetic acid]: the inhibition in assay [1] was determined as 42%.

Turning to `Cc1c(CC(=O)O)c2cc(OCc3ccc4ccccc4n3)ccc2n1Cc1ccc(OCc2ccc3ccccc3n2)cc1` [Example 28, 2-Methyl-5-(2-quinolinylmethoxy)-1-[[4-(2-quinolinylmethoxy)phenyl]methyl]-1H-indole-3-acetic acid hemihydrate], in assay [1], the inhibition was found to be 41%.

For the compound `O=C(O)Cc1cn(Cc2ccc(Cl)cc2)c2ccc(OCc3ccc4ccccc4n3)cc12` [Example 33, 1-[(4-Chlorophenyl)methyl]-5-(2-quinolinylmethoxy)-1H-indole-3-acetic acid], the inhibition in assay [1] turned out to be 38%.

On to `Cc1c(CC(=O)O)c2cc(OCc3csc(-c4ccccc4)n3)ccc2n1Cc1ccc(Cl)cc1` [Example 38, 1-[(4-Chlorophenyl)methyl]-2-methyl-5-[(2-phenyl-4-thiazolyl)methoxy]-1H-indole-3-acetic acid], for which, in assay [1], the inhibition was 31%.

`CC1=C(CC(=O)N(C)O)c2cc(F)ccc2C1=Cc1ccc(OCc2ccc3ccccc3n2)cc1` [Example 44, 5-Fluoro-N-hydroxy-N,2-dimethyl-1-[[4-(2-quinolinylmethoxy)penyl]methylene]-1H -indene-3-acetamide hydrochloride]: in assay [2] (25 μM), the “% Inhibition of LTB4” value came to 94%. Moreover, the IC50 in assay [2] stood at 4.5 µM.

As for `CCOC(=O)Cc1c(C)n(Cc2ccc(SC)cc2)c2ccc(OCc3nc4ccccc4s3)cc12` [Example 53, 5-(2-Benzothiazolylmethoxy)-1-[[4-(methylthio)phenyl]methyl]-2-methyl-1H-indole-3-acetic acid ethyl ester], in assay [1], the inhibition turned out to be 1%. In addition, the “% Inhibition of LTB4” value in assay [2] (25 μM) worked out at 80%.

As for `CCOC(=O)Cc1c(C)n(Cc2ccc(C(C)(C)C)cc2)c2ccc(OCc3csc(-c4ccccc4)n3)cc12` [Example 61, 5-[(2-Phenyl-4-thiazolyl)methoxy]-1-[[4-(1,1-dimethylethyl)phenyl]methyl]-2-methyl-1H-indole-3-acetic acid ethyl ester], in assay [2] (25 μM), the “% Inhibition of LTB4” value was 5%.
